{
  "source": "patent US20230143604A1",
  "about": "“QW DOSING OF GIP RECEPTOR AGONIST PEPTIDE COMPOUNDS AND USES THEREOF” (TAKEDA PHARMACEUTICAL COMPANY LIMITED, priority 2020, published 2023)",
  "assay": "physchem",
  "procedure,_shortened": "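3 mg of peptide treated with 100 μL portions of 200 mM phosphate buffer pH 7.4, sonicating/vortexing up to 1 min, with further buffer added until fully dissolved. Solubility then quantified by HPLC.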",
  "note": "Starred links: 1 amine or outer side, 2 acyl side, 3 side chain; linkers in the order of their positions; H or OH if unused. Non-standard residues stand in square brackets, D forms with d. Residues, ends and D or L forms follow the SMILES beside them. Groups on a side chain read outwards from the residue. *: point of attachment. C18 diacid = O=C(O)CCCCCCCCCCCCCCCCC(=O)*; γGlu = O=C(O)[C@H](CCC(=O)[*:2])N[*:1]; NMeY = CN[C@@H](Cc1ccc(O)cc1)C(=O)O; AEEA = NCCOCCOCC(=O)O; Aib = CC(C)(N)C(=O)O",
  "data": [
    {"smiles": "CC[C@H](C)[C@H](NC(=O)[C@H](CCCCN)NC(=O)[C@H](CC(=O)O)NC(=O)[C@H](CC(C)C)NC(=O)C(C)(C)NC(=O)[C@@H](NC(=O)[C@H](CO)NC(=O)[C@H](Cc1ccc(O)cc1)NC(=O)[C@H](CC(=O)O)NC(=O)[C@H](CO)NC(=O)[C@@H](NC(=O)[C@H](Cc1ccccc1)NC(=O)[C@@H](NC(=O)CNC(=O)[C@H](CCC(=O)O)NC(=O)C(C)(C)NC(=O)[C@@H](N)Cc1ccc(O)cc1)[C@@H](C)O)[C@@H](C)CC)[C@@H](C)CC)C(=O)N[C@@H](CCCCNC(=O)COCCOCCNC(=O)COCCOCCNC(=O)CC[C@H](NC(=O)CCCCCCCCCCCCCCCCC(=O)O)C(=O)O)C(=O)N[C@@H](CCC(N)=O)C(=O)N[C@@H](C)C(=O)N[C@@H](CC(=O)O)C(=O)N[C@@H](Cc1ccccc1)C(=O)N[C@H](C(=O)N[C@@H](CC(N)=O)C(=O)N[C@@H](Cc1c[nH]c2ccccc12)C(=O)N[C@@H](CC(C)C)C(=O)N[C@@H](CC(C)C)C(=O)N[C@@H](C)C(=O)N[C@@H](CCC(N)=O)C(=O)N[C@@H](CCCNC(=N)N)C(=O)NCC(=O)O)C(C)C", "note": "[Compound 172] (H-Y[Aib]EGTFISDYSI[Aib]LDKIK([AEEA-AEEA-γGlu-C18 diacid])QADFVNWLLAQRG-OH)", "values": [
      {"measurement": "solubility", "setting": "pH 7.4", "result": "≥ 15", "unit": "mg/mL"},
      {"measurement": "solubility", "setting": "pH 7.4, aqueous buffer", "result": "≥ 30", "unit": "mg/mL"}
    ]},
    {"smiles": "CC[C@H](C)[C@H](NC(=O)[C@H](CCCCN)NC(=O)[C@H](CC(=O)O)NC(=O)[C@H](CC(C)C)NC(=O)[C@H](C)NC(=O)[C@@H](NC(=O)[C@H](CO)NC(=O)[C@H](Cc1ccc(O)cc1)NC(=O)[C@H](CC(=O)O)NC(=O)[C@H](CO)NC(=O)[C@@H](NC(=O)[C@H](Cc1ccccc1)NC(=O)[C@@H](NC(=O)CNC(=O)[C@H](CCC(=O)O)NC(=O)C(C)(C)NC(=O)[C@H](Cc1ccc(O)cc1)NC)[C@@H](C)O)[C@@H](C)CC)[C@@H](C)CC)C(=O)N[C@@H](C)C(=O)N[C@@H](CCC(N)=O)C(=O)NC(C)(C)C(=O)N[C@@H](CCCCNC(=O)COCCOCCNC(=O)COCCOCCNC(=O)CC[C@H](NC(=O)CC[C@H](NC(=O)CCCCCCCCCCCCCCCCC(=O)O)C(=O)O)C(=O)O)C(=O)N[C@@H](Cc1ccccc1)C(=O)N[C@H](C(=O)N[C@@H](CCC(=O)O)C(=O)N[C@@H](Cc1c[nH]c2ccccc12)C(=O)N[C@@H](CC(C)C)C(=O)N[C@@H](CC(C)C)C(=O)N[C@@H](C)C(=O)N[C@@H](CCC(N)=O)C(=O)N[C@@H](CCCNC(=N)N)C(=O)NCC(=O)O)C(C)C", "note": "[Compound 173] (H-[NMeY][Aib]EGTFISDYSIALDKIAQ[Aib]K([AEEA-AEEA-γGlu-γGlu-C18 diacid])FVEWLLAQRG-OH)", "values": [
      {"measurement": "solubility", "setting": "pH 7.4", "result": "≥ 15", "unit": "mg/mL"},
      {"measurement": "solubility", "setting": "pH 7.4, aqueous buffer", "result": "≥ 30", "unit": "mg/mL"}
    ]},
    {"smiles": "CC[C@H](C)[C@H](NC(=O)[C@H](CO)NC(=O)[C@H](Cc1ccc(O)cc1)NC(=O)[C@H](CC(=O)O)NC(=O)[C@H](CO)NC(=O)[C@@H](NC(=O)[C@H](Cc1ccccc1)NC(=O)[C@@H](NC(=O)CNC(=O)[C@H](CCC(=O)O)NC(=O)C(C)(C)NC(=O)[C@H](Cc1ccc(O)cc1)NC)[C@@H](C)O)[C@@H](C)CC)C(=O)N[C@@H](C)C(=O)N[C@@H](CC(C)C)C(=O)N[C@@H](CC(=O)O)C(=O)N[C@@H](CCCCN)C(=O)N[C@@H](C)C(=O)N[C@@H](C)C(=O)N[C@@H](CCC(N)=O)C(=O)NC(C)(C)C(=O)N[C@@H](CCCCNC(=O)COCCOCCNC(=O)COCCOCCNC(=O)CC[C@H](NC(=O)CC[C@H](NC(=O)CCCCCCCCCCCCCCCCC(=O)O)C(=O)O)C(=O)O)C(=O)N[C@@H](Cc1ccccc1)C(=O)N[C@H](C(=O)N[C@@H](CCC(=O)O)C(=O)N[C@@H](Cc1c[nH]c2ccccc12)C(=O)N[C@@H](CC(C)C)C(=O)N[C@@H](CC(C)C)C(=O)N[C@@H](C)C(=O)N[C@@H](CCC(N)=O)C(=O)N[C@@H](CCCNC(=N)N)C(=O)NCC(=O)O)C(C)C", "note": "[Compound 174] (H-[NMeY][Aib]EGTFISDYSIALDKAAQ[Aib]K([AEEA-AEEA-γGlu-γGlu-C18 diacid])FVEWLLAQRG-OH)", "values": [
      {"measurement": "solubility", "setting": "pH 7.4", "result": "≥ 15", "unit": "mg/mL"},
      {"measurement": "solubility", "setting": "pH 7.4, aqueous buffer", "result": "≥ 30", "unit": "mg/mL"}
    ]},
    {"smiles": "CC[C@H](C)[C@H](NC(=O)[C@H](CCCCN)NC(=O)[C@H](CC(=O)O)NC(=O)[C@H](CC(C)C)NC(=O)[C@H](C)NC(=O)[C@@H](NC(=O)[C@H](CO)NC(=O)[C@H](Cc1ccc(O)cc1)NC(=O)[C@H](CC(=O)O)NC(=O)[C@H](CO)NC(=O)[C@@H](NC(=O)[C@H](Cc1ccccc1)NC(=O)[C@@H](NC(=O)CNC(=O)[C@H](CCC(=O)O)NC(=O)C(C)(C)NC(=O)[C@H](Cc1ccc(O)cc1)NC)[C@@H](C)O)[C@@H](C)CC)[C@@H](C)CC)C(=O)N[C@@H](C)C(=O)N[C@@H](CCC(N)=O)C(=O)NC(C)(C)C(=O)N[C@@H](CCCCNC(=O)COCCOCCNC(=O)COCCOCCNC(=O)CC[C@H](NC(=O)CC[C@H](NC(=O)CCCCCCCCCCCCCCCCC(=O)O)C(=O)O)C(=O)O)C(=O)N[C@@H](Cc1ccccc1)C(=O)N[C@H](C(=O)N[C@@H](CC(N)=O)C(=O)N[C@@H](Cc1c[nH]c2ccccc12)C(=O)N[C@@H](CC(C)C)C(=O)N[C@@H](CC(C)C)C(=O)N[C@@H](C)C(=O)N[C@@H](CCC(N)=O)C(=O)N[C@@H](CCCNC(=N)N)C(=O)NCC(=O)O)C(C)C", "note": "[Compound 175] (H-[NMeY][Aib]EGTFISDYSIALDKIAQ[Aib]K([AEEA-AEEA-γGlu-γGlu-C18 diacid])FVNWLLAQRG-OH)", "values": [
      {"measurement": "solubility", "setting": "pH 7.4", "result": "≥ 15", "unit": "mg/mL"},
      {"measurement": "solubility", "setting": "pH 7.4, aqueous buffer", "result": "≥ 30", "unit": "mg/mL"}
    ]},
    {"smiles": "CC[C@H](C)[C@H](NC(=O)[C@H](CO)NC(=O)[C@H](Cc1ccc(O)cc1)NC(=O)[C@H](CC(=O)O)NC(=O)[C@H](CO)NC(=O)[C@@H](NC(=O)[C@H](Cc1ccccc1)NC(=O)[C@@H](NC(=O)CNC(=O)[C@H](CCC(=O)O)NC(=O)C(C)(C)NC(=O)[C@H](Cc1ccc(O)cc1)NC)[C@@H](C)O)[C@@H](C)CC)C(=O)N[C@@H](C)C(=O)N[C@@H](CC(C)C)C(=O)N[C@@H](CC(=O)O)C(=O)N[C@@H](CCCCN)C(=O)N[C@@H](C)C(=O)N[C@@H](C)C(=O)N[C@@H](CCC(N)=O)C(=O)NC(C)(C)C(=O)N[C@@H](CCCCNC(=O)COCCOCCNC(=O)COCCOCCNC(=O)CC[C@H](NC(=O)CC[C@H](NC(=O)CCCCCCCCCCCCCCCCC(=O)O)C(=O)O)C(=O)O)C(=O)N[C@@H](Cc1ccccc1)C(=O)N[C@H](C(=O)N[C@@H](CC(N)=O)C(=O)N[C@@H](Cc1c[nH]c2ccccc12)C(=O)N[C@@H](CC(C)C)C(=O)N[C@@H](CC(C)C)C(=O)N[C@@H](C)C(=O)N[C@@H](CCC(N)=O)C(=O)N[C@@H](CCCNC(=N)N)C(=O)NCC(=O)O)C(C)C", "note": "[Compound 176] (H-[NMeY][Aib]EGTFISDYSIALDKAAQ[Aib]K([AEEA-AEEA-γGlu-γGlu-C18 diacid])FVNWLLAQRG-OH)", "values": [
      {"measurement": "solubility", "setting": "pH 7.4", "result": "≥ 15", "unit": "mg/mL"},
      {"measurement": "solubility", "setting": "pH 7.4, aqueous buffer", "result": "≥ 30", "unit": "mg/mL"}
    ]}
  ]
}
